Measurements published in patent publication US20200164065A1, “TRITERPENE SAPONIN ANALOGUES” (ADJUVANCE TECHNOLOGIES, INC., priority 2017, published 2020).
Like-named read-outs stand apart in the source and are kept apart here.

Experiments:
[1] = system: hemolysis; experiment: Hemolytic assay; type: cell-based
Method: (§1) Natural and synthetic QS-21 (SQS-21 or SAPONEX®) and a variety of analogs were tested for hemolytic activity.

[2] = Stability at 37° C.; type: physicochemical; conditions: after two weeks at 37° C.
Method: as §1

[3] = system: HA from H3N2 virus; experiment: Anti-HA total IgG ELISA after immunization with HA protein; type: in vivo, female BL/6 mice; conditions: 50 μg Compound I-4 with 9 or 3 μg/ml HA protein vs 9 μg/ml HA alone, day 21 serum
[4] = mouse, in vivo
[5] = system: liver; experiment: Pilot pharm/tox study: histopathology of 33 tissues
[6] = Pharm/tox study with Adacel, QS-21 and TiterQuil-1055: body weight
From the text: A 0.5 mcg dose of Adacel was selected for a pharmacology/toxicology (pharm/tox) study.
Mice were vaccinated SC on days 1 and 15, weighed daily, and bled and sacrificed on day 22, except for group 7 which was sacrificed on day 29.

[7] = cited from earlier work
[8] = Companion toxicity study: body mass three days after immunization; conditions: 20 mcg

CC1O[C@@H](OC2C(O)[C@@H](NC(=O)CCCCCCCCCCC(=O)O)C(CO)O[C@H]2OC(=O)[C@]23CCC(C)(C)CC2C2=CCC4C5(C)CC[C@H](O)C(C)(C=O)C5CCC4(C)C2(C)CC3O)C(O)C(O)[C@H]1O[C@@H]1OC[C@@H](O)C(O)C1O (some centres unmarked) [Compound I-4]
hemolytic activity [1]: much lower or undetectable hemolytic activity
degraded [2]: without detectable degradation
anti-HA total IgG endpoint titer and dose sparing of HA [3]: enhances anti-HA total IgG and provides a dose sparing effect on HA concentration
weight loss (30 mcg dose with Engerix-B): No weight loss
weight loss (100 mcg dose with Engerix-B): 4%
weight loss (300 mcg dose with Engerix-B): 5%
body mass gained on average [4]: 5%
liver histopathology (hepatocellular cytoplasmic vacuolization) ([5]; SC days 1 and 15, sacrificed day 22, 50 mcg TiterQuil-1055, 20 mcg QS-21, Adacel 2.5 mcg pertussis toxin): No changes at all
weight loss ([6]; mice receiving 50 mcg): No weight loss

QS-21 [reference compound]
hemolytic activity [1]: highly hemolytically active
degraded [2]: 20%
tolerated / maximum dose in cancer patients ([7]; cancer patients, above it local and systemic side effects): 100 to 150 µg
maximum dose for healthy patients ([7]; healthy patients): ~50 µg
highest practical tolerable dose ([7]; well (non-cancer) adult and child recipients): 25 to 50 µg
liver histopathology (hepatocellular cytoplasmic vacuolization) ([5]; mouse, in vivo, sc): Mild vacuolar changes
body mass lost on average [8]: 8-10%
body weight lost ([6]; mice injected with 20 mcg): 8-9%
